The subject of one data set is E. coli UTI89. The data set can be described thus: Human serum sensitization (MTT). It is filed as cell-based, Escherichia coli. As to conditions: 50 μM compound, p=0.0067 versus control; listed as DU011. Here is the method:
Human serum sensitization by capsule inhibitor treatment. Overnight cultures of UTI89 were diluted 1:100 and grown with or without 50 μM compound for approximately 1.5 hrs on a shaker at 37° C. Then 25 μL of anonymous, non-identified, sterile filtered pooled human serum (purchased from Equitech Bio) was added per 100 μL of growth media. This was returned to the shaker for another 3 hrs, after which 20 μL of 5 mg/mL MTT (3-(4,5-Dimethylthiazol-2-yl)-2,5-diphenyltetrazolium bromide) was added. MTT is reduced to purple formazan by bacterial reductase enzymes, thus measuring viable bacteria. This was shaken for another 15 min at 37° C. The sample was spun to remove the growth media, followed by two washes with PBS. The formazan crystals were dissolved in 100 μL of DMSO and measured at OD570.

The subject of a further data set is K1 capsule of UTI89. In words: Secondary assay 3: orcinol assay for released K1 capsule polysaccharide. It is filed as cell-based, Escherichia coli. Here is the method:
E. Secondary Assay 3: Orcinol Secondary Screening for Inhibitors of Bacterial Capsule Biogenesis.
Purpose: This assay was performed only on the probe candidate. […] The biochemical determination of cell-surface associated capsule was performed using UTI89 or the Delta Region I and Delta Region II capsule mutant bacterial strains.
Purpose: This assay was performed only on the probe candidate. […] The biochemical determination of cell-surface associated capsule was performed using UTI89 or the delta Region I and Region II capsule mutant bacterial strains.
Assay Description: The biochemical measurement of cell-surface associated capsule was performed. UTI89 or capsule mutants were grown in culture tubes with and without the test compound (50 μM). The cultures were centrifuged, and the cell pellets were washed in PBS and resuspended in Tris buffer, pH5. […] Released polysaccharide was harvested by separation from whole bacteria by centrifugation followed by deproteination with phenol/chloroform and precipitation with ethanol. The precipitated material was subjected to acid hydrolysis (pH 2 at 80° C. for 1 hr) and incubated with orcinol, which reacts with periodic intermediates to produce a violet color quantified at OD 570 (3) Inhibitors reducing or abrogating surface encapsulation yielded low orcinol levels similar to the capsule export and synthesis mutants (Region I and II). The positive control drug C7 (100 μM final well concentration) was used in this screen.
Endpoint Read: The samples were read at ambient temperature from the bottom for absorbance at A570 in a BioTek Quantplate reader and the degree of orcinol-reactive material was determined based on the absorbance compared to a wild-type encapsulated strain (UTI89) and a standard curve using purified sialic acid.
Orcinol assay for released capsule material. Orcinol reactivity was used as a biochemical confirmation of altered extracellular capsule after compound treatment. UTI89 or an isogenic capsule mutant was grown in 100 μM of test compound or 1% DMSO. The assay was performed as previously described. The molecule C7 (100 μM final concentration) was used as a positive control. The assay was performed 3 times with replicate samples.

Data set [1] relates to Bladder carcinoma 5637 cells. In words: Cytotoxicity counterscreen, CellTiter Glo, 72 hr. As to conditions: bladder carcinoma 5637 cells. Format: cell-based, human. In outline:
(§1)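 5637 bladder carcinoma cells were exposed to a 10-point compound series (300-0.58 μM, 0.5% DMSO) for 72 h. Viability was measured by CellTiter-Glo luminescence, and TC50 (CC50) was derived, with Hyamine as cytotoxic control.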
For orientation: The purpose of a counterscreen is to sort out artefacts and off-target activity.

A short description of data set [2]: Cytotoxicity counterscreen, CellTiter Glo, 72 hr. Format: cell-based, human. The note with it: human, bladder carcinoma 5637 cells (ATCC HTB-9); for CC50 at 72 h: read-out: Mammalian cell toxicity CC50. An outline of the steps:
as §1

For data set [3], the target named is norepinephrine transporter (Homo sapiens, UniProt P23975). In words: LeadProfilingScreen, single target. Format: binding. The note with it: Transporter, Norepinephrine (NET), hum, 10 μM. Here is the method:
Evaluation of off-target effects. Off target effects of lead molecules of interest were evaluated using the LeadProfilingScreen commercial assay at Eurofins Panlabs (Bothell, Wash.). Reference standards were run as an integral part of each assay to ensure the validity of the results obtained. Assay results are presented as the percent inhibition of specific binding or activity (for n=2 replicates) for the probe compound tested at a concentration of 10 μM. Details regarding the individual assays and methods are provided in Supplementary Information File 51.
DU003 & DU011 are biologically selective. DU003 and DU011 were submitted to the Eurofins Panlabs LeadProfilingScreen to assess off-target pharmacology 1421. […] In review of PubChem data, DU011 (CID23602075) is reported to have shown activity in only 21 of 467 (4.5%, as of Sep. 5, 2013) bioassays in which it was tested (assays unrelated to the current project). Per PubChem, DU003 (CID18109210) is reported to have shown activity in only 5 of 427 (1.2%, as of Sep. 5, 2013) bioassays in which it was tested (assays unrelated to the current project).

[4] abbreviates: synthesized sample, SID 126497311.

Values joined by “and” are separate entries in the source; they are usually repeats but may differ in a detail not shown here. Identical values can stand only once. “Also recorded” adds a separate entry of the source. Like-named read-outs stand apart in the source and are kept apart here.

norepinephrine transporter, sequence (P23975 whole entry): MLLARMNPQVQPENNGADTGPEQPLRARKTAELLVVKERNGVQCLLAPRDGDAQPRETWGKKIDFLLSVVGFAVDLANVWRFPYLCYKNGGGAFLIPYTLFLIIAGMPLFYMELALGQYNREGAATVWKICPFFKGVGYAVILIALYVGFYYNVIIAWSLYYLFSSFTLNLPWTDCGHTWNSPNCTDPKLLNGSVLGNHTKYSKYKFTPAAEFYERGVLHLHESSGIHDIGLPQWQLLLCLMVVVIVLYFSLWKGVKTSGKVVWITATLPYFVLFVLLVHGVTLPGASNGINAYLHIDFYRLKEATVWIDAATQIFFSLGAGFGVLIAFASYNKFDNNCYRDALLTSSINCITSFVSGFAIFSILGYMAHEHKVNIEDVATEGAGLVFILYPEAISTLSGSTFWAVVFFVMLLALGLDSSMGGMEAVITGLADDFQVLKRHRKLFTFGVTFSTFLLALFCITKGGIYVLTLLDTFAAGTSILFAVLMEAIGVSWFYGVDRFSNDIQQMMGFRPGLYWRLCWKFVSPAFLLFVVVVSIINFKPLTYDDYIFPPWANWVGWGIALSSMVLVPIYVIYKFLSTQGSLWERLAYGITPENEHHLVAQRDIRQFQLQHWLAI

In general, CC50 refers to the concentration that lowers cell viability or growth by half. The IC50 is the concentration that gives 50% inhibition. Low readings indicate greater potency in that assay, high ones weaker potency in that assay. On to `CCOc1ccc(-c2cc(NC(=O)c3c(F)cccc3F)c(C(=O)O)s2)cc1` [ML317, 3-(2,6-difluorobenzamido)-5-(4-ethoxyphenyl)thiophene-2-carboxylic acid], for which the “Sensitivity of UTI89 to pooled human serum (MTT)” value in the data set on E. coli UTI89 is given as “further increased serum-mediated killing; also recorded: significantly more sensitive”. Moreover, in the data set on K1 capsule of UTI89, the “Bacterial capsule-dependent orcinol stain, % of the control sample” value amounted to 21%. The “Reduction of orcinol-reactive polysaccharides on surface of bacteria” value in the data set with K1 capsule of UTI89 (100 μM, K1 strain UTI89) is recorded as approximately 80%. Further, the “Orcinol assay, % of control value” in the data set with K1 capsule of UTI89 (setting [4]) is “Orcinol assay 21%”. Besides, the “Cytotoxicity CC50 / TC50 / IC50” value in data set [1] is 47.2 ± 7.2 µM and 51.6 µM; in data set [1] (listed as CID 23602075), 47.2 ± 7.2 µM. Besides, the CC50 at 72 h was determined as 47.2 ± 7.2 µM in data set [2] (commercial sample, SID 103147605) and 51.6 ± 13.7 µM in data set [2] (setting [4]). Also, the IC50 at 72 h was 51.6 µM in data set [2] (first round of synthetic analogues, n = 3) and 47.2 µM in data set [2] (purchased analogue series, n = 2).
On to `CCOc1ccc(-c2cc(NC(=O)c3c(F)cccc3F)c(C(=O)O)s2)cc1` [KUC107784N-02], for which the “% Inh.” value in data set [3] was determined as 13%.

(Values after patent US9688653B2, “Ethoxyphenyl thienyl compounds and methods for the treatment of bacterial infections” (Duke University, priority 2013, dated 2017).)
